Reference: patent US9493432B2, “Cyclopentylbenzamide derivatives and their use for the treatment of psychotic and cognitive disorders” (Takeda Pharmaceutical Company Limited, priority 2013, dated 2016)

How the values were obtained:
human orexin receptor 2 = human orexin receptor 2 (Homo sapiens (Human), UniProt O43614); assay: Orexin antagonist activity, intracellular calcium FLIPR assay (orexin receptor 2); type: cell-based; settings: RBL-2H3 cells stably expressing human orexin receptor 2; Ca2+ dye FLIPR; compound 15 minutes before orexin-A at approximately 80% maximal response; read-out: Human Orexin2R IC50
Method in brief: (§1)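 RBL-2H3 cells stably expressing human OX1 or OX2 were loaded with Calcium 5 dye for 1 h at 37 °C. Compounds were added 15 min before orexin-A at a concentration giving ~80% maximal response, and Ca2+ fluorescence was read by FLIPR.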

human orexin receptor 1 = human orexin receptor 1 (Homo sapiens (Human), UniProt O43613); assay: Orexin antagonist activity, intracellular calcium FLIPR assay (orexin receptor 1); type: cell-based; settings: RBL-2H3 cells stably expressing human orexin receptor 1; Ca2+ dye FLIPR; compound 15 minutes before orexin-A at approximately 80% maximal response; read-out: Human Orexin1R IC50
Method in brief: as §1

Sequence of human orexin receptor 2 (O43614 whole entry): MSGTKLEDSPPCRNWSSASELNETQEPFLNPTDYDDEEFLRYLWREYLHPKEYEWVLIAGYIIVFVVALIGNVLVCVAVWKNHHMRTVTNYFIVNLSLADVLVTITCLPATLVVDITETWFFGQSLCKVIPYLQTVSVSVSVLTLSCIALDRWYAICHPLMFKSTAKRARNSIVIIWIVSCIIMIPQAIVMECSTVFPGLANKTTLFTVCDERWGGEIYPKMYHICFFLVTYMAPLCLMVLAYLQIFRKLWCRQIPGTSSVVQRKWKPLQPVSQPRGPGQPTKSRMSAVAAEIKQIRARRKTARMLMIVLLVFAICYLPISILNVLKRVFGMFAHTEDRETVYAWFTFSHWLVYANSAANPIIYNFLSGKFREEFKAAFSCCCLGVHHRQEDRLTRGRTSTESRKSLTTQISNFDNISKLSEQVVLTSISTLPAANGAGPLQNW
Sequence of human orexin receptor 1 (O43613 whole entry): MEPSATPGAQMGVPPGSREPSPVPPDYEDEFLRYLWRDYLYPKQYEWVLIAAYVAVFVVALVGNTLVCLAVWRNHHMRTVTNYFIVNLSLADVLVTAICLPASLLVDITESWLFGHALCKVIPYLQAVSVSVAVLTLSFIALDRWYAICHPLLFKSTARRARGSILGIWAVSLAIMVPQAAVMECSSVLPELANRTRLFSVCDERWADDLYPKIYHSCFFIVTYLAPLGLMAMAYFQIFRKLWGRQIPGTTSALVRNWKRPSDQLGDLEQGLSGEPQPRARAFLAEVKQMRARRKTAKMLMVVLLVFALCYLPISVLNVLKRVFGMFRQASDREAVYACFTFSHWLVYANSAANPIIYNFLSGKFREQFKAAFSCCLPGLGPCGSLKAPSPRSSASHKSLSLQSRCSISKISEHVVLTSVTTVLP

Row | Structure (SMILES) | IC50 (human orexin receptor 2) | IC50 (human orexin receptor 1)
1 | O=C(N[C@H]1CCC[C@@H]1Nc1nc2ccc(F)cc2s1)c1c(Cl)cccc1-n1nccn1 [Example 71, 2-Chloro-N-[(1S,2S)-2-[(6-fluoro-1,3-benzothiazol-2-yl)amino]cyclopentyl]-6-(2H-1,2,3-triazol-2-yl)benzamide] | 4200 nM | 24 nM
2 | Cc1nnc(-c2ccccc2C(=O)N[C@H]2CCC[C@@H]2Nc2nc3ccc(F)cc3s2)o1 [Example 72, N-[(1S,2S)-2-[(6-Fluoro-1,3-benzothiazol-2-yl)amino]cyclopentyl]-2-(5-methyl-1,3,4-oxadiazol-2-yl)benzamide] | > 10000 nM | 14 nM
3 | O=C(N[C@H]1CCC[C@@H]1Nc1nc2ccc(F)cc2s1)c1ccccc1-n1ccnn1 [Example 73, N-[(1S,2S)-2-[(6-Fluoro-1,3-benzothiazol-2-yl)amino]cyclopentyl]-2-(1H-1,2,3-triazol-1-yl)benzamide] | > 10000 nM | 35 nM
4 | O=C(N[C@H]1CCC[C@@H]1Nc1nc2ccc(F)cc2s1)c1cc(Cl)ccc1-n1cccn1 [Example 74, 5-Chloro-N-[(1S,2S)-2-[(6-fluoro-1,3-benzothiazol-2-yl)amino]cyclopentyl]-2-(1H-pyrazol-1-yl)benzamide] | 2100 nM | 38 nM
5 | CN(C(=O)c1c(F)cccc1F)[C@H]1CCC[C@@H]1Nc1nc2ccc(F)cc2s1 [Example 76, 2,6-Difluoro-N-[(1S,2S)-2-[(6-fluoro-1,3-benzothiazol-2-yl)amino]cyclopentyl]-N-methylbenzamide] | 2500 nM | 23 nM
6 | COc1ccccc1C(=O)N(C)[C@H]1CCC[C@@H]1Nc1nc2ccc(F)cc2s1 [Example 77, N-[(1S,2S)-2-[(6-Fluoro-1,3-benzothiazol-2-yl)amino]cyclopentyl]-2-methoxy-N-methylbenzamide] | 1600 nM | 25 nM
7 | CN(C(=O)c1ccccc1Cl)[C@H]1CCC[C@@H]1Nc1nc2ccc(F)cc2s1 [Example 78, 2-Chloro-N-[(1S,2S)-2-[(6-fluoro-1,3-benzothiazol-2-yl)amino]cyclopentyl]-N-methylbenzamide] | 2400 nM | 20 nM
8 | CN(C(=O)c1ccccc1-n1cccn1)[C@H]1CCC[C@@H]1Nc1nc2ccc(F)cc2s1 [Example 79, N-[(1S,2S)-2-[(6-Fluoro-1,3-benzothiazol-2-yl)amino]cyclopentyl]-N-methyl-2-(1H-pyrazol-1-yl)benzamide] | 1100 nM | 1 nM
9 | CN(C(=O)c1ccccc1-n1nccn1)[C@H]1CCC[C@@H]1Nc1nc2ccc(F)cc2s1 [Example 80, N-[(1S,2S)-2-[(6-Fluoro-1,3-benzothiazol-2-yl)amino]cyclopentyl]-N-methyl-2-(2H-1,2,3-triazol-2-yl)benzamide] | 650 nM | 1 nM
10 | CN(C(=O)c1cc(F)ccc1-n1nccn1)[C@H]1CCC[C@@H]1Nc1nc2ccc(F)cc2s1 [Example 81, 5-Fluoro-N-[(1S,2S)-2-[(6-fluoro-1,3-benzothiazol-2-yl)amino]cyclopentyl]-N-methyl-2-(2H-1,2,3-triazol-2-yl)benzamide] | 840 nM | 1 nM
11 | Cc1noc(-c2ccccc2C(=O)N(C)[C@H]2CCC[C@@H]2Nc2nc3ccc(F)cc3s2)n1 [Example 83, N-[(1S,2S)-2-[(6-Fluoro-1,3-benzothiazol-2-yl)amino]cyclopentyl]-N-methyl-2-(3-methyl-1,2,4-oxadiazol-5-yl)benzamide] | 1200 nM | 1 nM
12 | COc1cccc(OC)c1C(=O)N[C@H]1CCC[C@@H]1Nc1nc2cc(F)ccc2s1 [Example 84, N-[(1S,2S)-2-[(5-Fluoro-1,3-benzothiazol-2-yl)amino]cyclopentyl]-2,6-dimethoxybenzamide] | > 10000 nM | 45 nM
13 | COc1cccc(OC)c1C(=O)N[C@H]1CCC[C@@H]1Nc1nc2cc(F)ccc2o1 [Example 85, N-[(1S,2S)-2-[(5-Fluoro-1,3-benzoxazol-2-yl)amino]cyclopentyl]-2,6-dimethoxybenzamide] | > 10000 nM | 23 nM
14 | O=C(N[C@H]1CCC[C@@H]1Nc1nc2ccccc2o1)c1ccccc1-n1nccn1 [Example 86, N-[(1S,2S)-2-[(1,3-Benzoxazol-2-yl)amino]cyclopentyl]-2-(2H-1,2,3-triazol-2-yl)benzamide] | > 10000 nM | 150 nM
15 | O=C(N[C@H]1CCC[C@@H]1Nc1nc2ccc(F)cc2o1)c1ccccc1-n1nccn1 [Example 87, N-[(1S,2S)-2-[(6-Fluoro-1,3-benzoxazol-2-yl)amino]cyclopentyl]-2-(2H-1,2,3-triazol-2-yl)benzamide] | > 10000 nM | 21 nM
16 | O=C(N[C@H]1CCC[C@@H]1Nc1nc2cc(F)ccc2o1)c1ccccc1-n1nccn1 [Example 88, N-[(1S,2S)-2-[(5-Fluoro-1,3-benzoxazol-2-yl)amino]cyclopentyl]-2-(2H-1,2,3-triazol-2-yl)benzamide] | 4200 nM | 21 nM
17 | O=C(N[C@H]1CCC[C@@H]1Nc1nc2cc(Cl)ccc2s1)c1ccccc1-n1nccn1 [Example 89, N-[(1S,2S)-2-[(5-Chloro-1,3-benzothiazol-2-yl)amino]cyclopentyl]-2-(2H-1,2,3-triazol-2-yl)benzamide] | 5400 nM | 27 nM
18 | O=C(N[C@H]1CCC[C@@H]1Nc1nc2ccccc2s1)c1ccccc1-n1nccn1 [Example 90, N-[(1S,2S)-2-[(1,3-Benzothiazol-2-yl)amino]cyclopentyl]-2-(2H-1,2,3-triazol-2-yl)benzamide] | > 10000 nM | 16 nM
19 | O=C(N[C@H]1CCC[C@@H]1Nc1nc2cc(F)ccc2s1)c1ccccc1-n1nccn1 [Example 92, N-[(1S,2S)-2-[(5-Fluoro-1,3-benzothiazol-2-yl)amino]cyclopentyl]-2-(2H-1,2,3-triazol-2-yl)benzamide] | 8600 nM | 14 nM
20 | O=C(N[C@H]1CCC[C@@H]1Nc1nc2c(F)cc(F)cc2s1)c1ccccc1-n1nccn1 [Example 93, N-[(1S,2S)-2-[(4,6-Difluoro-1,3-benzothiazol-2-yl)amino]cyclopentyl]-2-(2H-1,2,3-triazol-2-yl)benzamide] | 6200 nM | 14 nM
21 | O=C(N[C@H]1CCC[C@@H]1Nc1nc2c(F)cccc2s1)c1ccccc1-n1nccn1 [Example 94, N-[(1S,2S)-2-[(4-Fluoro-1,3-benzothiazol-2-yl)amino]cyclopentyl]-2-(2H-1,2,3-triazol-2-yl)benzamide] | > 10000 nM | 30 nM
22 | O=C(N[C@H]1CCC[C@@H]1Nc1nc2cccnc2s1)c1ccccc1-n1nccn1 [Example 95, N-[(1S,2S)-2-({[1,3]Thiazolo[5,4-b]pyridin-2-yl}amino)cyclopentyl]-2-(2H-1,2,3-triazol-2-yl)benzamide] | > 10000 nM | 41 nM
23 | O=C(N[C@H]1CCC[C@@H]1Nc1nc2c(Cl)cncc2s1)c1ccccc1-n1nccn1 [Example 96, N-[(1S,2S)-2-({7-Chloro-[1,3]thiazolo[5,4-c]pyridin-2-yl}amino)cyclopentyl]-2-(2H-1,2,3-triazol-2-yl)benzamide] | > 10000 nM | 480 nM
24 | COc1cccc(OC)c1C(=O)NC1CCCC1Cc1ccc2ccccc2n1 (stereo not shown) [Example 98, 2,6-Dimethoxy-N-[2-(quinolin-2-ylmethyl)cyclopentyl]benzamide] | 2100 nM | 310 nM
25 | CC1(Nc2nc3ccc(F)cc3s2)CCCC1NC(=O)c1ccccc1-n1nccn1 (stereo not shown) [Example 107, N-{2-[(6-Fluoro-1,3-benzothiazol-2-yl)amino]-2-methylcyclopentyl}-2-(2H-1,2,3-triazol-2-yl)benzamide] | 60 nM | 7 nM
26 | CC1(Nc2nc3ccc(Cl)cc3s2)CCCC1NC(=O)c1ccccc1-n1nccn1 (stereo not shown) [Example 108, N-{2-[(6-Chloro-1,3-benzothiazol-2-yl)amino]-2-methylcyclopentyl}-2-(2H-1,2,3-triazol-2-yl)benzamide] | 186 nM | 13 nM
